Experimental data from US10588892B2, “Pharmaceutical composition comprising sacubitril and valsartan” (priority 2017, dated 2020).

Assay: Stability of polymorphic forms towards relative humidity
Type: physicochemical
Conditions: for stability at low relative humidity: relative humidity below 40%, temperatures between 15 and 30° C.
Method: Changes in humidity have less impact on the valsartan disodium form 2 as compared to the prior art form 1. […] By using valsartan disodium form 2 and by preparing the composition in an environment with relative humidity below 40%, at temperatures between 15 and 30° C., formation of the co-crystal is completely avoided. Any polymorphic form of sacubitril sodium can be used in accordance with the present invention. Preferably, the polymorphic form of sacubitril sodium is, like valsartan disodium form 2, very stable at relative humidity below […], at temperatures between 15 and 30° C. Particularly preferred polymorphic forms of sacubitril sodium to be used in a composition comprising a physical mixture with valsartan disodium form 2 are sacubitril sodium form 1 and form 2. Sacubitril sodium form 1 has an X-ray powder diffraction pattern comprising characteristic peaks at the following 2 theta (±0.2) angles: 3.14°, 6.25°, 11.97°, 12.73°, 13.78°, 16.50°, 18.35°, 19.93°, 21.56°, 23.75°, 26.20°, measured using a Cu Kα radiation. Sacubitril sodium form 2 has an X-ray powder diffraction pattern comprising characteristic peaks at the following 2 theta (±0.2) angles: 5.26°, 10.52°, 10.92°, 14.78°, 16.96°, 17.17°, 17.51°, 19.92°, 20.40°, 20.81°, 22.23°, measured using a Cu Kα radiation. […] The most preferred polymorphic form of sacubitril sodium to be used with valsartan disodium form 2 in a composition in accordance with the present invention is form 1.

stability at low relative humidity	impact of changes in humidity compared with prior art form 1	stability compared with prior art form 1 (example 11 of WO2002006253)	SMILES
stable compounds	–	–	CCOC(=O)[C@H](C)C[C@@H](Cc1ccc(-c2ccccc2)cc1)NC(=O)CCC(=O)O [Sacubitril sodium form 1, sacubitril sodium]
particularly stable	less impact	more stable	CCCCC(=O)N(Cc1ccc(-c2ccccc2-c2nnn[nH]2)cc1)[C@H](C(=O)O)C(C)C [valsartan disodium form 2, valsartan disodium]
